Laboratory results published in US9669050B2, “Composition for prevention or treatment of hyperlipidemia, fatty liver or obesity” (BENEBIOSIS CO., LTD., priority 2008, dated 2017).
Entries after “also recorded” stand apart in the source; their conditions may differ.

Experiments:
[1] = system: high-fat diet C56BL/6 male mice; experiment: Serum lipid and leptin levels in high-fat diet mice; format: in vivo, mouse; settings: for Leptin / HDL-cholesterol / HDL/TC / LDL/TC / Total cholesterol (TC) / Triglyceride / LDL-cholesterol: peritoneal injection every day, 50 days; for Leptin: ELISA; for HDL-cholesterol / HDL/TC / LDL/TC / Total cholesterol (TC) / Triglyceride / LDL-cholesterol: serum; for LDL-cholesterol: calculated by Equation 1
Description: (§1) Blood was taken from the liver of the C56BL/6 male mice. The blood was coagulated, centrifuged for 15 minutes at 13,000 rpm, and kept at −20° C. until serum analysis. High-density lipoprotein (HDL)-cholesterol level was measured using an HDL kit (YD Diagnostics, Korea). Triglyceride (TG) was analyzed using a TG kit (YD Diagnostics) based on enzymologic method. Total cholesterol was analyzed using a cholesterol E kit (YD Diagnostics). Low-density lipoprotein (LDL)-cholesterol level was calculated from triglyceride level, total cholesterol level and HDL-cholesterol level according to Equation 1: LDL-cholesterol=total cholesterol−{[…]} Equation 1
Leptin level was measured using a mouse leptin ELISA kit (Millipore) and a rat leptin ELISA kit (Millipore).

[2] = system: high-fat diet C56BL/6 male mice; experiment: Body weight change and food intake of high-fat diet mice; format: in vivo, mouse; settings: for Weight increase / Final weight: peritoneal injection every day; for Comparison of body weight increase, SL vs. ND: compared to normal diet mice
Description: 4 week-old C56BL/6 male mice were purchased from Dooyeul Biotech (Korea). Water was allowed freely and commercially available pellet feed (Dooyeul Biotech, Korea) was given for a week. The mice were grouped into six groups (six per each group) as follows: ND, normal diet group (normal group); HD, high-fat (60% fat) diet [purchased from Research Diets (New Brunswick, USA)] group (control group); and HD+SL (0.1 mg/kg), HD+SL (0.5 mg/kg), HD+SL (1.0 mg/kg) and HD+SL (5.0 mg/kg), high-fat diet groups treated with sialyllactose (SL, Sigma). Sialyllactose or PBS was administered every day by peritoneal injection. The mice were kept in cages for 50 days and sacrificed after fasting for 12 hours. Food intake and body weight change were measured every 7 days. 3′-Sialyllactose (3′-N-acetylneuraminyl-D-lactose, 3′-sialyl-D-lactose or α-NeuNAc-(2→3)-β-D-Gal-(1→4)-D-Glc) and 6′-sialyllactose (6′-N-acetylneuraminyl-lactose, 6′-sialyl-D-lactose or α-NeuNAc-(2→6)-β-D-Gal-(1→4)-D-Glc) were purchased from Sigma-Aldrich.

high-fat diet SD rats [3] = experiment: Improvement of fatty liver in high-fat diet rats (dissection, observation); format: in vivo, rat; settings: orally administered, FIGS. 8a and 8b
Text: In order to investigate 3′-SL's effect of improving fatty liver, high-fat diet SD rats were dissected and the liver and other organs were observed.

high-fat diet SD rats [4] = experiment: Subcutaneous, perirenal and retroperitoneal fat weight in high-fat diet rats; format: in vivo, rat; settings: orally administered for 6 weeks, FIG. 7
Description: As described above, 4 week-old SD rats were treated with high-fat diet and 3′-SL for 6 weeks. Then, subcutaneous fat, perirenal fat and retroperitoneal fat were isolated from the rats and weighed.

high-fat diet SD rats [5] = experiment: Serum lipid levels in high-fat diet rats; format: in vivo, rat; settings: HD + SL 1 mg/kg
Description: as §1
Blood was taken from the liver of the SD rats, and lipid levels were analyzed in the same manner as the experiment with the C57BL/6 male mice.

high-fat diet SD rats [6] = experiment: Body weight change, food and water intake of high-fat diet rats; format: in vivo, rat; settings: orally administered every day, 7 weeks
Description: 4 week-old Sprague-Dawley (SD) rats were purchased from Dooyeul Biotech (Korea). Water was allowed freely and commercially available pellet feed (Dooyeul Biotech, Korea) was given for a week. The rats were grouped into four groups (six per each group) as follows: ND, normal diet group (normal group); HD, high-fat (60% fat) diet [purchased from Research Diets (New Brunswick, USA)] group (control group); and HD+SL (1 mg/kg) and HD+SL (5 mg/kg), high-fat diet groups treated with SL (Sigma). 3′-SL or deionized water (DW) was orally administered every day. The mice were kept in cages for 7 weeks and sacrificed after fasting for 12 hours. Food intake and body weight change were measured every 5 days.

[7] = system: high-fat diet C56BL/6 male mice; experiment: Improvement of fatty liver in high-fat diet mice (dissection, observation); format: in vivo, mouse; settings: peritoneally administered, FIG. 4
Text: In order to investigate 3′-SL's effect of improving fatty liver, high-fat diet C56BL/6 male mice were dissected and the liver and other organs were observed.

[8] = high-fat diet + SL 5 mg/kg peritoneally injected, 50 days

## CC(=O)N[C@H]1[C@H]([C@H](O)[C@H](O)CO)O[C@@](OC[C@H]2O[C@@H](O[C@H]3[C@H](O)[C@@H](O)[C@H](O)O[C@@H]3CO)[C@H](O)[C@@H](O)[C@H]2O)(C(=O)O)C[C@@H]1O [6′-SL, α-NeuNAc-(2→6)-β-D-Gal-(1→4)-D-Glc]
[1]; HD + SL 0.1 mg/kg
  Leptin: 11.50 ± 3.72 ng/mL
  HDL-cholesterol: 70.71 ± 14.15 mg/dL
  HDL/TC: 0.55 ± 0.08(*)
  LDL/TC: 0.33 ± 0.07(*)
  Total cholesterol (TC): 126.68 ± 10.7 mg/dL
  Triglyceride: 74.48 ± 3.77 mg/dL
  LDL-cholesterol: 41.07 ± 6.34 mg/dL
[1]; HD + SL 0.5 mg/kg
  Leptin: 6.71 ± 0.93 ng/mL
  HDL-cholesterol: 76.33 ± 10.53 mg/dL
  HDL/TC: 0.58 ± 0.05(*)
  LDL/TC: 0.31 ± 0.05(*)
  Total cholesterol (TC): 130.54 ± 8.10 mg/dL
  Triglyceride: 71.05 ± 5.88 mg/dL
  LDL-cholesterol: 40.00 ± 4.25 mg/dL
[1]; HD + SL 1.0 mg/kg
  Leptin: 5.15 ± 1.61 ng/mL
  HDL-cholesterol: 57.44 ± 0.87 mg/dL
  HDL/TC: 0.53 ± 0.03(*)
  LDL/TC: 0.36 ± 0.02(*)
  Total cholesterol (TC): 109.14 ± 9.86 mg/dL
  Triglyceride: 60.69 ± 7.69 mg/dL
  LDL-cholesterol: 39.56 ± 8.53 mg/dL
[1]; HD + SL 5.0 mg/kg
  Leptin: 6.47 ± 1.64 ng/mL
  HDL-cholesterol: 62.73 ± 8.58 mg/dL
  HDL/TC: 0.54 ± 0.05(*)
  LDL/TC: 0.35 ± 0.10(*)
  Total cholesterol (TC): 115.36 ± 14.9 mg/dL
  Triglyceride: 61.34 ± 3.84 mg/dL
  LDL-cholesterol: 40.36 ± 2.69 mg/dL
[1]; high-fat diet mice, compared to the high-fat diet group
  effect on LDL-cholesterol, total cholesterol, triglyceride and leptin levels (in words): much better effect of reducing LDL-cholesterol, total cholesterol, triglyceride and leptin levels than 3′-SL
[2]; HD + SL 0.1 mg/kg
  Weight increase: 7.82 ± 1.44(*) g/50 day
[2]; HD + SL 0.1 mg/kg, 50 days
  Final weight: 26.82 ± 0.92 g
[2]; HD + SL 0.5 mg/kg
  Weight increase: 7.68 ± 2.82(*) g/50 day
[2]; HD + SL 0.5 mg/kg, 50 days
  Final weight: 25.74 ± 1.93 g
[2]; HD + SL 1.0 mg/kg
  Weight increase: 7.99 ± 1.15(*) g/50 day
[2]; HD + SL 1.0 mg/kg, 50 days
  Final weight: 25.62 ± 1.33 g
[2]; HD + SL 5.0 mg/kg
  Weight increase: 6.88 ± 1.80(*) g/50 day
[2]; HD + SL 5.0 mg/kg, 50 days
  Final weight: 25.92 ± 0.95 g
[2]; [8]
  body weight decrease compared to normal diet mice: 4.7%
  Comparison of body weight increase, SL vs. ND: −4.7%
[2]; high-fat diet mice, peritoneal injection, 50 days
  effect on body weight increase (in words): significant decrease in body weight increase; also recorded: more effective in body weight loss than 3′-SL; also recorded: less body weight increase than the normal diet mice

## CC(=O)N[C@H]1[C@H]([C@H](O)[C@H](O)CO)O[C@@](O[C@H]2[C@@H](O)[C@@H](CO)O[C@@H](O[C@H]3[C@H](O)[C@@H](O)C(O)O[C@@H]3CO)[C@@H]2O)(C(=O)O)C[C@@H]1O (stereo partly drawn) [3′-SL, α-NeuNAc-(2→3)-β-D-Gal-(1→4)-D-Glc]
high-fat diet SD rats [3]
  fatty liver, fat accumulation in liver and other organs (in words): fat accumulation reduced markedly
[1]; HD + SL 0.1 mg/kg
  Leptin: 66.59 ± 43.57 ng/mL
  HDL-cholesterol: 53.27 ± 5.08 mg/dL
  HDL/TC: 0.40 ± 0.04
  LDL/TC: 0.43 ± 0.02
  Total cholesterol (TC): 135.05 ± 13.58 mg/dL
  Triglyceride: 166.78 ± 6.60 mg/dL
  LDL-cholesterol: 58.16 ± 3.74 mg/dL
[1]; HD + SL 0.5 mg/kg
  Leptin: 38.73 ± 5.58 ng/mL
  HDL-cholesterol: 55.74 ± 3.18 mg/dL
  HDL/TC: 0.51 ± 0.02
  LDL/TC: 0.45 ± 0.12
  Total cholesterol (TC): 108.25 ± 3.06 mg/dL
  Triglyceride: 112.99 ± 8.16 mg/dL
  LDL-cholesterol: 48.43 ± 13.91 mg/dL
[1]; HD + SL 1.0 mg/kg
  Leptin: 19.29 ± 14.24 ng/mL
  HDL-cholesterol: 49.29 ± 3.40 mg/dL
  HDL/TC: 0.39 ± 0.01
  LDL/TC: 0.37 ± 0.12
  Total cholesterol (TC): 126.30 ± 7.75 mg/dL
  Triglyceride: 94.28 ± 5.66 mg/dL
  LDL-cholesterol: 46.03 ± 13.79 mg/dL
[1]; HD + SL 5.0 mg/kg
  Leptin: 6.64 ± 2.93 ng/mL
  HDL-cholesterol: 48.97 ± 1.62 mg/dL
  HDL/TC: 0.44 ± 0.05
  LDL/TC: 0.27 ± 0.04
  Total cholesterol (TC): 112.97 ± 12.54 mg/dL
  Triglyceride: 89.78 ± 4.31 mg/dL
  LDL-cholesterol: 29.91 ± 2.69 mg/dL
high-fat diet SD rats [4]
  subcutaneous, perirenal and retroperitoneal fat weight (in words): decreased subcutaneous fat, perirenal fat and retroperitoneal fat in a dose-dependent manner
high-fat diet SD rats [5]; compared to the control group
  effect on serum lipid levels (in words): higher HDL-cholesterol level and lower LDL-cholesterol, total cholesterol and triglyceride levels as compared to the control group
high-fat diet SD rats [5]; oral, serum
  HDL-cholesterol: 88.73 ± 1.32
  HDL/total cholesterol: 0.52 ± 0.04
  LDL/total cholesterol: 0.34 ± 0.03
  Total cholesterol: 171.44 ± 12.8
  Triglyceride: 149.00 ± 3.86
high-fat diet SD rats [5]; oral, serum, calculated by Equation 1
  LDL-cholesterol: 57.91 ± 1.39
[2]; HD + SL 0.1 mg/kg
  Weight increase: 8.94 ± 0.43 g/50 day
[2]; HD + SL 0.1 mg/kg, 50 days
  Final weight: 31.34 ± 1.15 g
[2]; HD + SL 0.5 mg/kg
  Weight increase: 7.52 ± 0.74 g/50 day
[2]; HD + SL 0.5 mg/kg, 50 days
  Final weight: 30.42 ± 0.51 g
[2]; HD + SL 1.0 mg/kg
  Weight increase: 5.60 ± 0.77 g/50 day
[2]; HD + SL 1.0 mg/kg, 50 days
  Final weight: 29.00 ± 0.82 g
[2]; HD + SL 5.0 mg/kg
  Weight increase: 6.68 ± 0.28 g/50 day
[2]; HD + SL 5.0 mg/kg, 50 days
  Final weight: 28.68 ± 0.95 g
[2]; [8]
  Comparison of body weight increase, SL vs. ND: 51.5%
high-fat diet SD rats [6]; HD + SL 1.0 mg/kg
  Final weight: 454.17 ± 10.37 g
  Weight increase: 4.05 ± 0.16 g/day
high-fat diet SD rats [6]; HD + SL 5.0 mg/kg
  Final weight: 443.33 ± 19.56 g
  Weight increase: 3.66 ± 0.32 g/day
[7]
  fatty liver, fat accumulation in liver and other organs (in words): fat accumulation was not observed in the liver or other organs
